The values that follow come from patent US20060041017A1, “Synergistic conjugated linoleic acid (CLA) and carnitine combination” (priority 2004, published 2006).

Type in all cases: in vivo
Experiment [1] deals with carnitine palmitoyl transferase (CPT 1). Put plainly: CPT I activity in brown adipose tissue after two weeks of daily oral gavage. The following applies: adult rats, oral gavage daily for two weeks; for CPT I activity in brown adipose tissue (low dose) % Control: control = corn oil; for CPT I activity in brown adipose tissue (standard dose) % Control: control = water; for CPT I activity in brown adipose tissue (low dose) Mean ± SEM: L-Carnitine 68.25 mg, CLA 91 mg, Carnitine+CLA 68.25 mg+91 mg; for CPT I activity in brown adipose tissue (standard dose) Mean ± SEM: L-Carnitine 273 mg, CLA 354 mg, Carnitine+CLA 273 mg+364 mg. The text has this: Brown adipose tissue is an important site for long-term storage of fat in the body and for the rapid metabolism of fat for thermogenesis. CPT I is a key enzyme in this process and it has an essential role In the metabolism of fats by transporting long chain fatty acids into the Inner mitochondria for oxidation. The first experiment involved the following groups of adult rats. The treatment involved administration of the following products daily by oral gavage for two weeks, the control group receiving water. Carnitine was administered as the fumarate salt. • 1. Control (water)−(1 mL) • 2. L-Carnitine−273 mg (in 1 mL water) • 3. CLA−354 mg (In 1 mL corn oil) • 4. Carnitine+CLA−273 mg+364 mg (in 1 mL corn oil) At the end of two weeks, the animals were euthanized and brown adipose tissue was excised for CPT I assay according to Rahman et al(2001). […] Corn Oil−(1 mL) • 2. L-Carnitine−68.25 mg (in 1 mL water) • 3. CLA−91 mg (in 1 mL corn oil) • 4. Carnitine+CLA−68.25 mg+91 mg (in 1 mL corn oil)

The test system of a further experiment is heart mitochondrial CoQ. The experiment can be described thus: Heart mitochondrial CoQ levels (HPLC) after 2 weeks of supplementation. The following applies: Wistar rats; for Heart mitochondrial CoQ content (CoQ10-OX+CoQ9-OX) in comparison with control group: 2 weeks, result in words; for HEART mitochondria CoQ9-OX / HEART mitochondria CoQ10 + CoQ9 / HEART mitochondria CoQ10-OX: oral gavage daily 2 weeks, 91 mg CLA, 68,25 mg L-carnitine fumarate, means ± s.e.m. The method, then:
(§1) Methods: Four groups of 3-months old Wistar rats were given the following treatments by oral gavage daily for 2 weeks: (1) C (control)−1 ml corn oil, (2) CLA−91 mg CLA (in corn oil), (3) CAR−68,25 mg L-carnitine fumarate (in corn oil), (4) CLA+CAR−91 mg CLA with 68,25 mg L-carnitine fumarate (in corn oil). Body weight and body fat weight (corpus adiposum nuchae, corpus adiposum, perirenal tissue, omentum majus) were measured. CoQ 10 and CoQ9 in isolated mitochondria were estimated by HPLC method. For evaluation of parameters of oxidative phosphorylation were used Gilson oxygraph records of respiratory chain by using Clark oxygen electrode (S3— ADP stimulated respiration, S4— basal respiration, OPR—rate of ATP production). A spectrophotometric assay was used for CPT activity.

The test system of experiment [2] is Carnitine palmitoytransferase (CPT). The experiment can be described thus: CPT activity in heart mitochondria (spectrophotometric assay). The following applies: Wistar rats, oral gavage daily 2 weeks; 91 mg CLA, 68,25 mg L-carnitine fumarate; means ± s.e.m. On the procedure: as §1
Another experiment has as its system kidney mitochondrial CoQ. Put plainly: Kidney mitochondrial CoQ levels (HPLC) after 2 weeks of supplementation. The following applies: Wistar rats; for Kidney mitochondrial CoQ content (CoQ10-OX+CoQ9-OX) in comparison with control group: 2 weeks, result in words; for KIDNEY mitochondria CoQ9-OX / KIDNEY mitochondria CoQ10 + CoQ9 / KIDNEY mitochondria CoQ10-OX: oral gavage daily 2 weeks, 91 mg CLA, 68,25 mg L-carnitine fumarate. On the procedure: as §1

In experiment [3] the test system is Carnitine palmitoytransferase (CPT). Put plainly: CPT activity in kidney mitochondria (spectrophotometric assay). The following applies: Wistar rats, oral gavage daily 2 weeks; 91 mg CLA, 68,25 mg L-carnitine fumarate. On the procedure:
as §1

As for `C[N+](C)(C)CC(O)CC(=O)[O-]` (stereo not shown) [Carnitine, 3-hydroxy-4-N,N, N-trlmethylaminobutyrate], in experiment [1], the CPT I activity in brown adipose tissue (low dose) % Control came to 125 % Control, the “CPT I activity in brown adipose tissue (standard dose) % Control” value came to 117.85 % Control, the “CPT I activity in brown adipose tissue (low dose) Mean ± SEM” value was determined as 27.024 ± 2.074 nmoles/mg protein/min and the “CPT I activity in brown adipose tissue (standard dose) Mean ± SEM” value came out at 26.808 ± 2.373 nmoles/mg protein/min. In the experiment on heart mitochondrial CoQ, the “Heart mitochondrial CoQ content (CoQ10-OX+CoQ9-OX) in comparison with control group” value is recorded as “significantly stimulated”, the “HEART mitochondria CoQ9-OX” value is on record as 4.692 ± 0.168 nmol/mg prot, the “HEART mitochondria CoQ10 + CoQ9” value is recorded as 5.147 ± 0.181 nmol/mg prot and the “HEART mitochondria CoQ10-OX” value is recorded as 0.452 ± 0.021 nmol/mg prot. The “HEART mitochondria CPT” value in experiment [2] amounted to 12.36 ± 1.759 nmol/mg rot./min. Moreover, in the experiment on kidney mitochondrial CoQ, the “Kidney mitochondrial CoQ content (CoQ10-OX+CoQ9-OX) in comparison with control group” value is listed as “significantly stimulated”, the “KIDNEY mitochondria CoQ9-OX” value was 1.290 ± 0.119 nmol/mg prot, the “KIDNEY mitochondria CoQ10 + CoQ9” value was 1.471 ± 0.128 nmol/mg prot and the “KIDNEY mitochondria CoQ10-OX” value was determined as 0.138 ± 0.012 nmol/mg prot. The “KIDNEY mitochondria CPT” value in experiment [3] is given as 2.974 ± 0.466 nmol/mg rot./min.

As for octadecadienoic acid [CLA], in experiment [1], the “CPT I activity in brown adipose tissue (low dose) % Control” value came to 121.53 % Control, the “CPT I activity in brown adipose tissue (standard dose) % Control” value is 129.82 % Control, the “CPT I activity in brown adipose tissue (low dose) Mean ± SEM” value is recorded as 27.840 ± 1.259 nmoles/mg protein/min and the “CPT I activity in brown adipose tissue (standard dose) Mean ± SEM” value was 29.530 + 1.590 nmoles/mg protein/min. For the same compound, in the experiment with heart mitochondrial CoQ, the “Heart mitochondrial CoQ content (CoQ10-OX+CoQ9-OX) in comparison with control group” value is given as “significantly stimulated”, the “HEART mitochondria CoQ9-OX” value is on record as 3.379 ± 0.261 nmol/mg prot, the “HEART mitochondria CoQ10 + CoQ9” value is recorded as 3.722 ± 0.298 nmol/mg prot and the “HEART mitochondria CoQ10-OX” value stood at 0.343 ± 0.041 nmol/mg prot. The “HEART mitochondria CPT” value in experiment [2] is 15.52 ± 1.080 nmol/mg rot./min. In the experiment with kidney mitochondrial CoQ, the “Kidney mitochondrial CoQ content (CoQ10-OX+CoQ9-OX) in comparison with control group” value was “significantly stimulated”, the “KIDNEY mitochondria CoQ9-OX” value turned out to be 1.162 ± 0.102 nmol/mg prot, the “KIDNEY mitochondria CoQ10 + CoQ9” value was determined as 1.284 ± 0.105 nmol/mg prot and the “KIDNEY mitochondria CoQ10-OX” value stood at 0.122 ± 0.005 nmol/mg prot. Further, the “KIDNEY mitochondria CPT” value in experiment [3] is on record as 6.517 ± 0.351 nmol/mg rot./min.
